Data on two molecules can be found in patent US10801035B2, “Plants having increased tolerance to herbicides” (BASF SE, priority 2011, dated 2020).

Format in all cases: biochemical
For experiment [1], the target named is T1, Hordeum HPPD variant L320Q (Hordeum vulgare, UniProt O48604, A164G/L320Q/R146V/R147D/R148G).
T1 construct: His6; made in house; host or cells: E. coli BL21 (DE3)
Kind of experiment: HPPD activity assay, Hordeum HPPD mutant L320Q. To be noted: normalized on wildtype. As to the method:
(§1) HPPD produces homogentisic acid and CO2 from 4-hydroxyphenylpyruvate (4-HPP) and O2. The activity assay for HPPD is based on the analysis of homogentisic acid by reversed phase HPLC.
(§2) The assay mixture can contain 150 mM potassium phosphate buffer pH 7.0, 50 mM L-ascorbic acid, 1 μM FeSO4 and 7 μg of purified enzyme in a total volume of 1 ml. Inhibitors are dissolved in DMSO (dimethylsulfoxide) to a concentration of 20 mM or 0.5 mM, respectively. From this stock solution serial five-fold dilutions are prepared in DMSO, which are used in the assay. The respective inhibitor solution accounts for 1% of the assay volume. Thus, final inhibitor concentrations range from 200 μM to 2.5 nM or from 5 μM to 63 pM, respectively. After a preincubation of 30 min the reaction is started by adding 4-HPP to a final concentration of 0.1 mM. […]
(§3) Inhibitors are dissolved in DMSO (dimethylsulfoxide) to a concentration of 0.5 mM. […] IC50 values are calculated using non-linear regression.
(§4) Purified, mutant HPPD enzymes are obtained by the methods described above. […] Apparent michaelis constants (Km) and maximal reaction velocities (Vmax) are calculated by non-linear regression with the software GraphPad Prism 5 (GraphPad Software, La Jolla, USA) using a substrate inhibition model. […] Weighted means (by standard error) of Km and […] values are calculated from at least three independent experiments. […]

Experiment [2] addresses T2, Hordeum HPPD variant L320H, P321A (Hordeum vulgare, UniProt O48604, L320H/P321A).
T2 construct: His6; made in house; host or cells: E. coli BL21 (DE3)
Kind of experiment: HPPD activity assay, Hordeum HPPD mutant L320H, P321A. Conditions: normalized on wildtype. The protocol: as §1, §2, §3, §4

Experiment [3] deals with T3, Hordeum HPPD variant G407C (Hordeum vulgare, UniProt O48604, A164G/G407C/R146V/R147D/R148G).
T3 construct: His6; made in house; host or cells: E. coli BL21 (DE3)
The experiment can be described thus: HPPD activity assay, Hordeum HPPD mutant G407C. To be noted: normalized on wildtype. As to the method:
as §1, §2, §3, §4

The target in experiment [4] is T4, Hordeum HPPD variant L353M, P321R, V212I, L334E (Hordeum vulgare, UniProt O48604, L334E/L353M/P321R/V212I).
T4 construct: His6; made in house; host or cells: E. coli BL21 (DE3)
Kind of experiment: HPPD activity assay, Hordeum HPPD mutant L353M, P321R, V212I, L334E. To be noted: normalized on wildtype. The protocol:
as §1, §2, §3, §4

Experiment [5] concerns the target T5, Hordeum HPPD variant V212L (Hordeum vulgare, UniProt O48604, A164G/R146V/R147D/R148G/V212L).
T5 construct: His6; made in house; host or cells: E. coli BL21 (DE3)
The experiment can be described thus: HPPD activity assay, Hordeum HPPD mutant V212L. Conditions: normalized on wildtype. The protocol:
as §1, §2, §3, §4

The subject of the next experiment is Avena HPPD. The experiment can be described thus: HPPD activity assay, Avena HPPD. To be noted: normalized on Hordeum HPPD. As to the method: as §1
(§5) The assay mixture can contain 150 mM potassium phosphate buffer pH 7.0, 50 mM L-ascorbic acid, 1 μM FeSO4 and 7 μg of purified enzyme in a total volume of 1 ml. Inhibitors are dissolved in DMSO (dimethylsulfoxide) to a concentration of 20 mM or 0.5 mM, respectively. From this stock solution serial five-fold dilutions are prepared in DMSO, which are used in the assay. The respective inhibitor solution accounts for 1% of the assay volume. […]
(§6) Activities are normalized by setting the uninhibited enzyme activity to 100%. […] values are calculated using non-linear regression. […]
as §3
(§7) Using methods which are described in the above examples or well known in the art, purified, recombinant wildtype HPPD enzymes are characterized with respect to their kinetic properties and sensitivity towards HPPD inhibiting herbicides. Apparent michaelis constants (Km) and maximal reaction velocities (Vmax) are calculated by non-linear regression with the software GraphPad Prism 5 (GraphPad Software, La Jolla, USA) using a substrate inhibition model. […]

For experiment [6], the target named is T6, Hordeum HPPD variant L353M, P321R, L320N (Hordeum vulgare, UniProt O48604, L320N/L353M/P321R).
T6 construct: His6; made in house; host or cells: E. coli BL21 (DE3)
The experiment can be described thus: HPPD activity assay, Hordeum HPPD mutant L353M, P321R, L320N. To be noted: normalized on wildtype. The protocol: as §1, §2, §3, §4

Experiment [7] concerns the target T7, Arabidopsis HPPD variant M335H, P336A, E363Q (Arabidopsis thaliana, UniProt P93836, E363Q/M335H/P336A).
T7 construct: His6 (N); made in house; host or cells: E. coli BL21 (DE3)
The experiment can be described thus: HPPD activity assay, Arabidopsis HPPD mutant M335H, P336A, E363Q. Conditions: normalized on wildtype. The protocol: as §1, §2, §3, §4

Experiment [8] deals with T8, Hordeum HPPD variant L353M, P321R, V212I (Hordeum vulgare, UniProt O48604, L353M/P321R/V212I).
T8 construct: His6; made in house; host or cells: E. coli BL21 (DE3)
The experiment can be described thus: HPPD activity assay, Hordeum HPPD mutant L353M, P321R, V212I. To be noted: normalized on wildtype. As to the method: as §1, §2, §3, §4

The subject of another experiment is Rhodococcus HPPD1. The experiment can be described thus: HPPD activity assay, Rhodococcus HPPD1. Conditions: normalized on Hordeum HPPD. The protocol: as §1, §5, §6, §3, §7

T6 sequence (O48604 whole entry R146V/R147D/R148G/A164G/L320N/P321R/L353M): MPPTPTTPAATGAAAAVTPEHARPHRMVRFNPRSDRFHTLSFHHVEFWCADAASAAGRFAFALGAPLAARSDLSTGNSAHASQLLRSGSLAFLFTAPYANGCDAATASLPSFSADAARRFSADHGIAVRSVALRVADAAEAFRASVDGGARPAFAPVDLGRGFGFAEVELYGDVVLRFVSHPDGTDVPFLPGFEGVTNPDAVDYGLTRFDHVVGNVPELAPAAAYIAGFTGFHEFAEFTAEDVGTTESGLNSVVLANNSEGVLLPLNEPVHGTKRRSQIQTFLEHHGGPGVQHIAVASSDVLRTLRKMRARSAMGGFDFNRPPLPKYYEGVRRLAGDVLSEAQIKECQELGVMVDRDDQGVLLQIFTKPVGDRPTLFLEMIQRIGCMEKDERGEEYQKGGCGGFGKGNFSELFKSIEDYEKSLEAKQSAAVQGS
T1 sequence (O48604 whole entry R146V/R147D/R148G/A164G/L320Q): as the sequence (O48604 whole entry R146V/R147D/R148G/A164G/L320N/P321R/L353M) above, with N320Q, R321P, M353L counted along it
T5 sequence (O48604 whole entry R146V/R147D/R148G/A164G/V212L): as the sequence (O48604 whole entry R146V/R147D/R148G/A164G/L320N/P321R/L353M) above, with V212L, N320L, R321P, M353L counted along it
T7 sequence (P93836 whole entry M335H/P336A/E363Q): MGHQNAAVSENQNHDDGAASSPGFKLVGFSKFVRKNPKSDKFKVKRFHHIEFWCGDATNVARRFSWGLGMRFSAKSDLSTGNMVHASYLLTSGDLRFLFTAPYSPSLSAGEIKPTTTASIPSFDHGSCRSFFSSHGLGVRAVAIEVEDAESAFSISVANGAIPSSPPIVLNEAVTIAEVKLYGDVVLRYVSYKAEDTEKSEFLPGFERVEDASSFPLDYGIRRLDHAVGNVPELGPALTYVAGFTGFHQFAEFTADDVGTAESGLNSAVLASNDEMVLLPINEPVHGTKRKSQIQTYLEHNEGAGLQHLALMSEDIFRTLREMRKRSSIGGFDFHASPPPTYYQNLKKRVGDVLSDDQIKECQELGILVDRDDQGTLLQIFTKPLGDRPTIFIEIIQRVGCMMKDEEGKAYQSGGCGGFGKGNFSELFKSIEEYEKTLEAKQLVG
T4 sequence (O48604 whole entry R146V/R147D/R148G/A164G/V212I/P321R/L334E/L353M): as the sequence (O48604 whole entry R146V/R147D/R148G/A164G/L320N/P321R/L353M) above, with V212I, N320L, L334E counted along it
T8 sequence (O48604 whole entry R146V/R147D/R148G/A164G/V212I/P321R/L353M): as the sequence (O48604 whole entry R146V/R147D/R148G/A164G/L320N/P321R/L353M) above, with V212I, N320L counted along it
T2 sequence (O48604 whole entry R146V/R147D/R148G/A164G/L320H/P321A): as the sequence (O48604 whole entry R146V/R147D/R148G/A164G/L320N/P321R/L353M) above, with N320H, R321A, M353L counted along it
T3 sequence (O48604 whole entry R146V/R147D/R148G/A164G/G407C): as the sequence (O48604 whole entry R146V/R147D/R148G/A164G/L320N/P321R/L353M) above, with N320L, R321P, M353L, G407C counted along it

On to `O=S1(=O)C(c2c(Cl)cc(Cl)nc2Cl)=C(O)c2ncccc2N1CC(F)F` [Inhibitor 2, 1-(2,2-difluoroethyl)-2,2-dioxo-3-(2,4,6-trichloro-3-pyridyl)pyrido[3,2-c]thiazin-4-ol], for which the “Normalized tolerance index (TI)” value in experiment [1] came out at 1.8; in [2], 3.7; in experiment [3] it was 3.2; in [4], 3.8; in experiment [5], 0.5; with Avena HPPD it was 5.2. The “Normalized tolerance index (TI)” value in experiment [6] is 3; in experiment [7], 1.2; in [8] it was 3; in the experiment on Rhodococcus HPPD1, 17.1.

For the molecule `CC1=NOC(c2c(Cl)ccc(C3=C(O)c4ncccc4N(CC(F)F)S3(=O)=O)c2Cl)C1` (centres unmarked) [Inhibitor 1, 3-[2,4-dichloro-3-(3-methyl-4,5-dihydroisoxazol-5-yl)phenyl]-1-(2,2-difluoroethyl)-2,2-dioxo-pyrido[3,2-c]thiazin-4-ol], the “Normalized tolerance index (TI)” value is recorded as 3.4 in experiment [1]; 6.5 in experiment [2]; 1.6 in [3]; 2.4 in experiment [4]; 2.6 in experiment [5]; 7.4 with Avena HPPD. For the same molecule, the “Normalized tolerance index (TI)” value was 2.5 in experiment [6], 3 in [7], 2.3 in experiment [8] and 40.1 in the experiment on Rhodococcus HPPD1.
